Data taken from PubChem BioAssay (NCI).
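Interpolation was linear, between the two tested concentrations surrounding the appropriate level; five concentrations were tested over 48 hours in 96-well plates. Here, GI50 denotes the concentration required for 50% inhibition of growth. TGI marks complete inhibition of growth.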

How the values were obtained:
Assay in all cases: DTP human tumour cell line panel, 48 h
[1] = test system: A549 NSCLC
[2] = test system: HOP-92 NSCLC
[3] = test system: SNB-19 CNS
[4] = test system: OVCAR-5 ovarian
[5] = test system: COLO 205 colon
[6] = test system: TK-10 renal
[7] = test system: HL-60(TB) leukemia
[8] = test system: KM12 colon
[9] = test system: MOLT-4 leukemia
[10] = test system: MDA-MB-231 breast

## COC(=O)CCC(NC(=S)N/N=C/c1cccs1)C(=O)OC (centres undefined)
[1]
  TGI: > 100 µM
[2]
  TGI: > 100 µM
[3]
  TGI: > 100 µM
[4]
  TGI: > 100 µM
[5]
  TGI: > 100 µM
[6]
  TGI: > 100 µM
[7]
  TGI: > 100 µM
[8]
  TGI: > 100 µM

## COc1cc2oc(-c3ccc(O)cc3)cc(=O)c2c(O)c1C1OC(CO)C(O)C(O)C1O (centres undefined)
[1]
  TGI: > 100 µM
[3]
  TGI: > 100 µM
[4]
  TGI: > 100 µM
[9]
  TGI: > 100 µM
[5]
  TGI: > 100 µM
[6]
  TGI: > 100 µM
[7]
  TGI: > 100 µM
[8]
  TGI: > 100 µM

## O=C(NC12CC3CCC1CC(C3)C2)[C@@H]1CCCN1C(=O)OCc1ccccc1 (some centres undefined)
[1]
  TGI: > 100 µM
[2]
  TGI: 71.5 µM
[3]
  TGI: > 100 µM
[4]
  TGI: > 100 µM
[9]
  TGI: > 100 µM
[5]
  TGI: > 100 µM
[6]
  TGI: > 100 µM
[7]
  TGI: 73.3 µM
[8]
  TGI: > 100 µM

## COc1nc2c(c(O)c(C)c(=O)n2OC2OCC(OC(C)=O)C(OC(C)=O)C2OC(C)=O)c(=O)n1C (centres undefined)
[1]
  TGI: > 100 µM
[3]
  TGI: > 100 µM
[4]
  TGI: > 100 µM
[9]
  TGI: > 100 µM
[5]
  TGI: > 100 µM
[6]
  TGI: > 100 µM
[8]
  TGI: > 100 µM

## COc1cc2c(cc1Nc1nc(N3CCc4ccccc43)c3cc[nH]c3n1)N(C(=O)CN(C)C)CC2
[1]
  GI50: 3.34 µM
  TGI: 8.88 µM
[3]
  GI50: 4.44 µM
  TGI: 11.5 µM
[4]
  GI50: 1.22 µM
  TGI: 5.63 µM
[9]
  GI50: 1.88 µM
  TGI: 4.79 µM
[5]
  GI50: 5.4 µM
  TGI: 14.3 µM
[6]
  GI50: 1.67 µM
  TGI: 3.37 µM
[7]
  GI50: 1.18 µM
  TGI: 6.82 µM
[10]
  GI50: 5.86 µM
  TGI: 12.7 µM
[8]
  GI50: 1.49 µM
  TGI: 2.81 µM

## O=c1cc(O)cc2n1CCC2
[1]
  TGI: > 100 µM
[3]
  TGI: > 100 µM
[4]
  TGI: > 100 µM
[9]
  TGI: > 100 µM
[5]
  TGI: > 100 µM
[6]
  TGI: > 100 µM
[8]
  TGI: > 100 µM

## O=[N+]([O-])c1cccc(C2=NN(c3ccccc3)C3c4cc(Br)ccc4OCC23)c1 (centres undefined)
[1]
  TGI: > 100 µM
[2]
  TGI: > 100 µM
[3]
  TGI: > 100 µM
[4]
  TGI: > 100 µM
[9]
  TGI: > 100 µM
[5]
  TGI: > 100 µM
[6]
  TGI: > 100 µM
[7]
  TGI: > 100 µM
[8]
  TGI: > 100 µM

## N#C/C(=C\c1cc(OCc2ccccc2)c(OCc2ccccc2)cn1)C(N)=O
[1]
  TGI: > 100 µM
[2]
  TGI: > 100 µM
[3]
  TGI: > 100 µM
[4]
  TGI: > 100 µM
[9]
  TGI: 52.4 µM
[5]
  TGI: > 100 µM
[6]
  TGI: > 100 µM
[7]
  TGI: 36.9 µM
[8]
  TGI: > 100 µM

## CCOC(=O)c1nc(C)oc1C(F)(F)F
[1]
  TGI: > 100 µM
[2]
  TGI: > 100 µM
[3]
  TGI: > 100 µM
[4]
  TGI: > 100 µM
[9]
  TGI: > 100 µM
[5]
  TGI: > 100 µM
[6]
  TGI: > 100 µM
[7]
  TGI: > 100 µM
[8]
  TGI: > 100 µM

## COc1ccc2sc3c(NCCCN)nc4ccccc4c3c(=O)c2c1
[1]
  GI50: 1.64 µM
  TGI: 3.39 µM
[2]
  GI50: 1.36 µM
  TGI: 3.39 µM
[4]
  GI50: 1.68 µM
  TGI: 3.28 µM
[9]
  GI50: 1.48 µM
  TGI: 3.17 µM
[5]
  GI50: 1.8 µM
  TGI: 3.71 µM
[7]
  GI50: 1.89 µM
  TGI: 3.63 µM
[10]
  GI50: 1.52 µM
  TGI: 3 µM
[8]
  GI50: 1.82 µM
  TGI: 3.36 µM

## O=C1[C@@H]2C(c3c(Cl)cccc3Cl)=NO[C@@H]2C(=O)N1c1ccc(Cc2ccc(N3C(=O)[C@H]4C(c5c(Cl)cccc5Cl)=NO[C@H]4C3=O)cc2)cc1
[1]
  TGI: > 100 µM
[2]
  TGI: > 100 µM
[4]
  TGI: > 100 µM
[9]
  TGI: > 100 µM
[5]
  TGI: > 100 µM
[6]
  TGI: > 100 µM
[7]
  TGI: > 100 µM
[8]
  TGI: > 100 µM

## O=[N+]([O-])c1ccc(Cl)c2c([N+](=O)[O-])cccc12
[1]
  TGI: > 10 µM
[2]
  TGI: > 10 µM
[3]
  TGI: > 10 µM
[9]
  TGI: > 10 µM
[5]
  TGI: > 10 µM
[6]
  TGI: > 10 µM
[7]
  TGI: 7.16 µM
[8]
  TGI: > 10 µM

## CCc1cccc(C)c1NC(=O)CCc1nc(=S)[nH][nH]1
[1]
  TGI: > 100 µM
[2]
  TGI: > 100 µM
[3]
  TGI: > 100 µM
[4]
  TGI: > 100 µM
[9]
  TGI: > 100 µM
[6]
  TGI: > 100 µM
[7]
  TGI: > 100 µM
[8]
  TGI: > 100 µM

## O=C(NC1C(=O)NNC1c1cccc([N+](=O)[O-])c1)c1ccccc1 (centres undefined)
[1]
  TGI: > 100 µM
[2]
  TGI: > 100 µM
[3]
  TGI: > 100 µM
[4]
  TGI: > 100 µM
[9]
  TGI: > 100 µM
[5]
  TGI: > 100 µM
[6]
  TGI: > 100 µM
[7]
  TGI: > 100 µM
[8]
  TGI: > 100 µM

## CCCCCCCC(=O)OCC(COC(=O)C(C)(C)C)OC(=O)Cc1ccccc1 (centres undefined)
[1]
  TGI: > 100 µM
[2]
  TGI: > 100 µM
[3]
  TGI: > 100 µM
[4]
  TGI: > 100 µM
[9]
  TGI: > 100 µM
[5]
  TGI: > 100 µM
[6]
  TGI: > 100 µM
[7]
  TGI: > 100 µM

## CNCc1cccc2c1OCCOCCOCCN(C)S(=O)(=O)c1ccc(cc1)-c1cnc(N)c(n1)C(=O)N2
[1]
  GI50: 1.57 µM
  TGI: 13.4 µM
[3]
  GI50: 2.72 µM
  TGI: 8.47 µM
[4]
  GI50: 3.39 µM
  TGI: 8.57 µM
[9]
  GI50: 0.41 µM
  TGI: 11.8 µM
[5]
  GI50: 0.775 µM
  TGI: 3.23 µM
[6]
  GI50: 2.06 µM
  TGI: 20.8 µM
[7]
  GI50: 0.578 µM
  TGI: 3.14 µM
[10]
  GI50: 2.28 µM
  TGI: 6.44 µM
[8]
  GI50: 2.29 µM
  TGI: 14.6 µM

## O=[N+]([O-])c1ccccc1C1SCc2nc3ccccc3n21 (centres undefined)
[1]
  TGI: > 100 µM
[2]
  TGI: > 100 µM
[3]
  TGI: > 100 µM
[9]
  TGI: > 100 µM
[6]
  TGI: > 100 µM
[7]
  TGI: > 100 µM
[8]
  TGI: > 100 µM

## Cc1c(C(=N)C(C#N)C#N)c(=N)oc2c1ccc1ccccc12
[1]
  GI50: 32.9 µM
  TGI: > 100 µM
[3]
  GI50: 30.5 µM
  TGI: > 100 µM
[4]
  GI50: 39.5 µM
  TGI: > 100 µM
[9]
  GI50: 21.7 µM
  TGI: > 100 µM
[5]
  GI50: 14.9 µM
  TGI: 29.8 µM
[6]
  GI50: 30.5 µM
  TGI: > 100 µM
[7]
  GI50: 8.76 µM
  TGI: 85.8 µM
[10]
  GI50: 19.1 µM
  TGI: > 100 µM
[8]
  GI50: 26.2 µM
  TGI: > 100 µM

## CCCCCCCCCCCC[N+]1(CCCCCCCCCCCC)CCCC(C)C1 (centres undefined)
[1]
  GI50: 0.172 µM
  TGI: 0.736 µM
[4]
  GI50: 1.06 µM
  TGI: 2.29 µM
[7]
  GI50: 0.174 µM
  TGI: 0.666 µM

## Cc1nc2ccccc2nc1CC(=O)C(=O)Nc1ccc(Cl)cc1Cl
[1]
  TGI: > 100 µM
[2]
  TGI: > 100 µM
[3]
  TGI: > 100 µM
[4]
  TGI: > 100 µM
[9]
  TGI: > 100 µM
[5]
  TGI: > 100 µM
[6]
  TGI: > 100 µM
[7]
  TGI: > 100 µM
[8]
  TGI: > 100 µM
